Data published in PubChem BioAssay (NCI).
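In this assay, cells in 96-well plates receive the compound at five concentrations for 48 hours. Endpoints are linearly interpolated between the surrounding concentrations. Abbreviation: GI50, concentration required for 50% inhibition of growth. TGI: concentration producing complete growth inhibition.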

Experiments:
Test in all cases: inhibition of tumour cell growth, NCI panel, 48 h
786-0 renal = system: 786-0 renal
A498 renal = system: A498 renal
A549 NSCLC = system: A549 NSCLC
ACHN renal = system: ACHN renal
BT-549 breast = system: BT-549 breast
CAKI-1 renal = system: CAKI-1 renal
CCRF-CEM leukemia = system: CCRF-CEM leukemia
COLO 205 colon = system: COLO 205 colon
DU-145 prostate = system: DU-145 prostate
EKVX NSCLC = system: EKVX NSCLC
HCT-116 colon = system: HCT-116 colon
HCT-15 colon = system: HCT-15 colon
HL-60(TB) leukemia = system: HL-60(TB) leukemia
HOP-62 NSCLC = system: HOP-62 NSCLC
HOP-92 NSCLC = system: HOP-92 NSCLC
HS 578T breast = system: HS 578T breast
HT29 colon = system: HT29 colon
IGROV1 ovarian = system: IGROV1 ovarian
K-562 leukemia = system: K-562 leukemia
KM12 colon = system: KM12 colon
LOX IMVI melanoma = system: LOX IMVI melanoma
M14 melanoma = system: M14 melanoma
MALME-3M melanoma = system: MALME-3M melanoma
MCF7 breast = system: MCF7 breast
MDA-MB-231 breast = system: MDA-MB-231 breast
MDA-MB-435 = system: MDA-MB-435
NCI-H226 lung = system: NCI-H226 lung
NCI-H23 lung = system: NCI-H23 lung
NCI-H460 lung = system: NCI-H460 lung
NCI-H522 lung = system: NCI-H522 lung
NCI/ADR-RES ovarian = system: NCI/ADR-RES ovarian
OVCAR-3 ovarian = system: OVCAR-3 ovarian
OVCAR-4 ovarian = system: OVCAR-4 ovarian
OVCAR-5 ovarian = system: OVCAR-5 ovarian
OVCAR-8 ovarian = system: OVCAR-8 ovarian
PC-3 prostate = system: PC-3 prostate
RPMI-8226 leukemia = system: RPMI-8226 leukemia
RXF 393 renal = system: RXF 393 renal
SF-268 CNS = system: SF-268 CNS
SF-295 CNS = system: SF-295 CNS
SF-539 CNS = system: SF-539 CNS
SK-MEL-2 melanoma = system: SK-MEL-2 melanoma
SK-MEL-28 melanoma = system: SK-MEL-28 melanoma
SK-MEL-5 melanoma = system: SK-MEL-5 melanoma
SK-OV-3 ovarian = system: SK-OV-3 ovarian
SN12C renal = system: SN12C renal
SNB-19 CNS = system: SNB-19 CNS
SNB-75 CNS = system: SNB-75 CNS
SR leukemia = system: SR leukemia
SW-620 colon = system: SW-620 colon
TK-10 renal = system: TK-10 renal
U251 CNS = system: U251 CNS
UACC-257 melanoma = system: UACC-257 melanoma
UACC-62 melanoma = system: UACC-62 melanoma

O=S(=O)(Nc1ccc(-c2nc(-c3cccc(O)c3)c(-c3ccnc(Br)c3)[nH]2)cc1)c1ccccc1
GI50 (786-0 renal): 2.51 µM | TGI (786-0 renal): 7.48 µM | GI50 (A498 renal): 0.364 µM | TGI (A498 renal): 3.67 µM | GI50 (A549 NSCLC): 3 µM | TGI (A549 NSCLC): 33.1 µM | GI50 (ACHN renal): 2.55 µM | TGI (ACHN renal): 6.96 µM | GI50 (BT-549 breast): 2.49 µM | TGI (BT-549 breast): 6.76 µM | GI50 (CAKI-1 renal): 2.15 µM | TGI (CAKI-1 renal): 7.51 µM | GI50 (CCRF-CEM leukemia): 1.91 µM | TGI (CCRF-CEM leukemia): > 100 µM | GI50 (COLO 205 colon): 2.42 µM | TGI (COLO 205 colon): 6.81 µM | GI50 (DU-145 prostate): 3.24 µM | TGI (DU-145 prostate): 10.9 µM | GI50 (EKVX NSCLC): 2.55 µM | TGI (EKVX NSCLC): 8.09 µM | GI50 (HCT-116 colon): 2.43 µM | TGI (HCT-116 colon): 7.16 µM | GI50 (HCT-15 colon): 1.97 µM | TGI (HCT-15 colon): 4.76 µM | GI50 (HL-60(TB) leukemia): 2.44 µM | TGI (HL-60(TB) leukemia): 6.46 µM | GI50 (HOP-62 NSCLC): 2.42 µM | TGI (HOP-62 NSCLC): 6.43 µM | GI50 (HOP-92 NSCLC): 1.69 µM | TGI (HOP-92 NSCLC): 4.9 µM | GI50 (HS 578T breast): 1.5 µM | TGI (HS 578T breast): 4.39 µM | GI50 (HT29 colon): 3.17 µM | TGI (HT29 colon): 18.3 µM | GI50 (IGROV1 ovarian): 2.88 µM | TGI (IGROV1 ovarian): 11.3 µM | GI50 (K-562 leukemia): 2.27 µM | TGI (K-562 leukemia): > 100 µM | GI50 (KM12 colon): 2.32 µM | TGI (KM12 colon): 5.99 µM | GI50 (LOX IMVI melanoma): 1.74 µM | TGI (LOX IMVI melanoma): 3.29 µM | GI50 (M14 melanoma): 2.5 µM | TGI (M14 melanoma): 8.55 µM | GI50 (MALME-3M melanoma): 2.1 µM | TGI (MALME-3M melanoma): 6.89 µM | GI50 (MCF7 breast): 2.3 µM | TGI (MCF7 breast): 7.3 µM | GI50 (MDA-MB-231 breast): 2.71 µM | TGI (MDA-MB-231 breast): 11.7 µM | GI50 (MDA-MB-435): 2.2 µM | TGI (MDA-MB-435): 6.54 µM | GI50 (NCI-H226 lung): 2.25 µM | TGI (NCI-H226 lung): 7.27 µM | GI50 (NCI-H23 lung): 2.18 µM | TGI (NCI-H23 lung): 6.11 µM | GI50 (NCI-H460 lung): 2.14 µM | TGI (NCI-H460 lung): 4.71 µM | GI50 (NCI-H522 lung): 2.48 µM | TGI (NCI-H522 lung): 9.95 µM | GI50 (NCI/ADR-RES ovarian): 3.04 µM | TGI (NCI/ADR-RES ovarian): 32 µM | GI50 (OVCAR-3 ovarian): 2.07 µM | TGI (OVCAR-3 ovarian): 4.82 µM | GI50 (OVCAR-4 ovarian): 3.09 µM | TGI (OVCAR-4 ovarian): 15.1 µM | GI50 (OVCAR-5 ovarian): 4.34 µM | TGI (OVCAR-5 ovarian): 22.7 µM | GI50 (OVCAR-8 ovarian): 2.84 µM | TGI (OVCAR-8 ovarian): 9.74 µM | GI50 (PC-3 prostate): 2.12 µM | TGI (PC-3 prostate): 6.82 µM | GI50 (RPMI-8226 leukemia): 2.35 µM | TGI (RPMI-8226 leukemia): 6.63 µM | GI50 (RXF 393 renal): 1.93 µM | TGI (RXF 393 renal): 4.36 µM | GI50 (SF-268 CNS): 3.18 µM | TGI (SF-268 CNS): 13.7 µM | GI50 (SF-295 CNS): 1.9 µM | TGI (SF-295 CNS): 4.25 µM | GI50 (SF-539 CNS): 2.01 µM | TGI (SF-539 CNS): 4.75 µM | GI50 (SK-MEL-2 melanoma): 2.41 µM | TGI (SK-MEL-2 melanoma): 6.21 µM | GI50 (SK-MEL-28 melanoma): 2.86 µM | TGI (SK-MEL-28 melanoma): 9.36 µM | GI50 (SK-MEL-5 melanoma): 2.4 µM | TGI (SK-MEL-5 melanoma): 5.82 µM | GI50 (SK-OV-3 ovarian): 2.76 µM | TGI (SK-OV-3 ovarian): 7.34 µM | GI50 (SN12C renal): 2.91 µM | TGI (SN12C renal): 13.2 µM | GI50 (SNB-19 CNS): 3.32 µM | TGI (SNB-19 CNS): 15.5 µM | GI50 (SNB-75 CNS): 1.3 µM | TGI (SNB-75 CNS): 7.18 µM | GI50 (SR leukemia): 2.29 µM | TGI (SR leukemia): > 100 µM | GI50 (SW-620 colon): 2.84 µM | TGI (SW-620 colon): 10.6 µM | GI50 (TK-10 renal): 3.04 µM | TGI (TK-10 renal): 9.95 µM | GI50 (U251 CNS): 2.71 µM | TGI (U251 CNS): 10.8 µM | GI50 (UACC-257 melanoma): 2.53 µM | TGI (UACC-257 melanoma): 7.15 µM | GI50 (UACC-62 melanoma): 1.91 µM | TGI (UACC-62 melanoma): 4.97 µM
